We go through 73 compounds from patent US11701364B2, “Agonists of stimulator of interferon genes sting” (The Scripps Research Institute, priority 2018, dated 2023).

The structures appear in SMILES notation. Some results are limits rather than exact numbers.

The EC50 is the concentration at which the effect is half-maximal.

The target in the assay is T1, STING (Stimulator of Interferon Genes) (Homo sapiens, UniProt Q86WV6, G230A/H232R/R293Q/R71H).
T1 construct: host or cells: THP-1-Lucia ISG cells (human monocytic line)
T1 sequence (Q86WV6 whole entry R71H/G230A/H232R/R293Q): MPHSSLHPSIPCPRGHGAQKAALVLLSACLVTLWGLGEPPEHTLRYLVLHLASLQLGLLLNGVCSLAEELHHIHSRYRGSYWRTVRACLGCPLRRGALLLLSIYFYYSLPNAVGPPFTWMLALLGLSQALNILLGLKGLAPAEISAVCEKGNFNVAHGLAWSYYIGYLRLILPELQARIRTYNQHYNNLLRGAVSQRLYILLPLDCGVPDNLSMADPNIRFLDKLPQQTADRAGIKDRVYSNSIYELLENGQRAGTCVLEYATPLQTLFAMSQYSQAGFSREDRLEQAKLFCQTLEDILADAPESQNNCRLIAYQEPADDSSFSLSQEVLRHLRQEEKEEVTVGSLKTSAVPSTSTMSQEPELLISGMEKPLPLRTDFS
Put plainly: ISG-LUC activation assay (ISRE-Luciferase assay in THP-1 Lucia ISG reporter cells). The assay is classed as cell-based. The following applies: THP-1 Lucia ISG cells, 24 hours, luciferase reporter; read-out: ISG-LUC activation assay (EC50). An excerpt:
This has been established using a primary assay involving a human THP-1 cell line carrying an IRF-inducible reporter with 5 copies of the IFN signaling response element. Counter screens, involving alternative reporter constructs, rodent cell-based assays, as well as cGAS and STING knock-out cell lines, are used to eliminate luciferase artifacts and ensure human-rodent cross species reactivity, as well as pathway selectivity. Biochemical assays, involving cGAS enzymatic activity and STING protein binding assays, are used to identify the specific target of identified hits.
THP-1 Lucia ISG cells were resuspended in low-serum growth media (2% FBS) at a density of 5×10^5 cells/ml and treated with test article or vehicle (DMSO). 50 μL of cells were seeded into each well of a 384-well white greiner plates and incubated for 24 hours. To evaluate expression of the luciferase reporter, 30 μl of Quanti-luc (Invivogen) detection reagent was added to each well and luminescence was read using an Envision plate reader (Perkin Elmer) set with an integration time of 0.1 seconds.
(Reporter assays use an easily measured gene product as a stand-in for the process of interest.)
As for `COCC(=O)c1nc(Cl)ncc1NC(=O)c1ccc(-n2ccnc2)nn1` [Compound 75], the EC50 worked out at 1.26 µM.
With `COC(=O)c1cc(OC(F)(F)F)ccc1NC(=O)c1ccc(-n2ccnc2)nn1` [Compound 76] the figure was 0.573 µM; with `COC(=O)C1=C(NC(=O)c2ccc(-n3ccnc3)nn2)CC(C)(C)C1` [Compound 77], above 50 µM; with `O=C(Nc1cc2ccccc2cc1C(=O)O)c1ccc(-n2ccnc2)nn1` [Compound 78], 4.44 µM.
With `CCc1ccc(NC(=O)c2ccc(-n3ccnc3)nn2)c(C(=O)O)c1` [Compound 79] the figure was above 20 µM; with `O=C(Nc1cc(F)c(C(F)(F)F)cc1C(=O)O)c1ccc(-n2ccnc2)nn1` [Compound 80], 3.97 µM; with `Cc1cc(NC(=O)c2ccc(-n3ccnc3)nn2)c(C(=O)O)cc1F` [Compound 81], 2.74 µM.
Regarding `Cc1ccc(C(=O)O)c(NC(=O)c2ccc(-n3ccnc3)nn2)c1` [Compound 82], the EC50 was 6.39 µM.
The figure for `O=C(Nc1ccc(Cl)cc1C(=O)O)c1ccc(-n2ccnc2)nn1` [Compound 83] is above 20 µM.
The figure for `O=C(Nc1cc(F)c(OC(F)F)cc1C(=O)O)c1ccc(-n2ccnc2)nn1` [Compound 84] is 8.59 µM.
The figure for `O=C(Nc1ccc(C2CC2)cc1C(=O)O)c1ccc(-n2ccnc2)nn1` [Compound 85] is around 16.6 µM; for `O=C(Nc1cc(C(F)(F)F)ccc1C(=O)O)c1ccc(-n2ccnc2)nn1` [Compound 86] it is 10.3 µM; for `O=C(Nc1cc(F)c(F)cc1C(=O)NC1CCC(O)(C(F)(F)F)CC1)c1ccc(-n2ccnc2)nn1` (stereo not shown) [Compound 87] it is above 20 µM.
As to `O=C(Nc1cc(F)c(F)cc1C(=O)NC1CCC(O)(C(F)(F)F)CC1)c1ccc(-n2ccnc2)nn1` (stereo not shown) [Compound 88], the EC50 came out at 5.24 µM.
`Cc1ccc(NC(=O)c2ccc(-n3ccnc3)nn2)c(C(=O)O)c1` [Compound 89]: the EC50 was above 20 µM.
For the compound `O=C(Nc1ccc(C(F)(F)F)cc1C(=O)O)c1ccc(-n2ccnc2)nn1` [Compound 90], the EC50 was above 20 µM.
With `COC(=O)c1cccc(C)c1NC(=O)c1ccc(-n2ccnc2)nn1` [Compound 91] the figure was around 5.07 µM; with `COC(=O)c1ccccc1NC(=O)c1ccc(-n2cnc(C#N)c2)nn1` [Compound 92], around 5.26 µM.
The figure for `COC(=O)c1ccccc1NC(=O)c1ccc(-n2cnc(C)c2)nn1` [Compound 93] is above 20 µM; for `CC(C)OC(=O)c1ccccc1NC(=O)c1ccc(-n2ccnc2)nn1` [Compound 95] it is 1.7 µM.
With `COC(=O)c1cccc(Cl)c1NC(=O)c1ccc(-n2ccnc2)nn1` [Compound 96] the figure was 21.1 µM.
In the case of `COC(=O)c1cc(Cl)cc(C)c1NC(=O)c1ccc(-n2ccnc2)nn1` [Compound 97], the EC50 was around 2.49 µM.
With `COC(=O)c1cc2c(cc1NC(=O)c1ccc(-n3ccnc3)nn1)OCO2` [Compound 98], the EC50 was determined as 2.68 µM.
The figure for `COC(=O)c1c(F)ccc(Cl)c1NC(=O)c1ccc(-n2ccnc2)nn1` [Compound 99] is 11.9 µM.
As to `COC(=O)c1c(Cl)cc(F)cc1NC(=O)c1ccc(-n2ccnc2)nn1` [Compound 100], the EC50 was found to be 10.2 µM.
Take `Cc1cc(C(=O)O)c(NC(=O)c2ccc(-n3ccnc3)nn2)cc1C(F)(F)F` [Compound 102]: the EC50 was determined as 12.1 µM.
For the compound `O=C(Nc1cc(Cl)c(Cl)cc1C(=O)O)c1ccc(-n2ccnc2)nn1` [Compound 103], the EC50 worked out at 0.451 µM.
With `COC(=O)c1cc(C)ccc1NC(=O)c1ccc(-n2ccnc2)nn1` [Compound 104] the figure was 0.426 µM; with `COC(=O)c1ccc(OC)cc1NC(=O)c1ccc(-n2ccnc2)nn1` [Compound 105], 0.192 µM.
With `COC(=O)c1cc(Cl)ccc1NC(=O)c1ccc(-n2ccnc2)nn1` [Compound 106] the figure was 0.346 µM; with `COC(=O)c1cc(F)c(F)cc1NC(=O)c1ccc(-n2ccnc2)nn1` [Compound 107], 0.415 µM.
In the case of `COC(=O)c1cnccc1NC(=O)c1ccc(-n2ccnc2)nn1` [Compound 108], the EC50 was 3.35 µM.
The figure for `COC(=O)c1cc(O)ccc1NC(=O)c1ccc(-n2ccnc2)nn1` [Compound 109] is 8.95 µM.
With `CCOC(=O)c1cc[nH]c1NC(=O)c1ccc(-n2ccnc2)nn1` [Compound 110] the figure was 16.9 µM.
With `Cc1cc(NC(=O)c2ccc(-n3ccnc3)nn2)c(C(=O)O)cc1C` [Compound 111] the figure was 7.25 µM; with `CCOC(=O)C1=C(NC(=O)c2ccc(-n3ccnc3)nn2)CCCC1` [Compound 112], 1.5 µM.
Take `CCOC(=O)C1=C(NC(=O)c2ccc(-n3ccnc3)nn2)CCC1` [Compound 113]: the EC50 came to 18.7 µM.
The figure for `COC(=O)c1cc2c(cc1NC(=O)c1ccc(-n3ccnc3)nn1)CCCC2` [Compound 114] is 4.35 µM.
The figure for `Cc1ccc(NC(=O)c2ccc(-n3ccnc3)nn2)c(C(O)(C(F)(F)F)C(F)(F)F)c1` [Compound 115] is 7.36 µM; for `CCOC(=O)c1cc2c(nc1NC(=O)c1ccc(-n3ccnc3)nn1)CCN(C)C2` [Compound 116] it is 3.46 µM.
With `COC(=O)c1cc2[nH]ncc2cc1NC(=O)c1ccc(-n2ccnc2)nn1` [Compound 117], the concentration giving a half-maximal response (EC50) was around 2.57 µM.
`O=C(Nc1ccccc1-c1noc(O)n1)c1ccc(-n2ccnc2)nn1` [Compound 118]: the EC50 was 3.97 µM.
In the case of `COC(=O)c1nn(C)cc1NC(=O)c1ccc(-n2ccnc2)nn1` [Compound 119], the EC50 was 5.89 µM.
With `CCOC(=O)C1=C(NC(=O)c2ccc(-n3ccnc3)nn2)CCCCC1` [Compound 120] the figure was above 50 µM; with `O=C(Nc1ccc2ccccc2c1C(O)(C(F)(F)F)C(F)(F)F)c1ccc(-n2ccnc2)nn1` [Compound 121], 1.83 µM.
With `O=C(Nc1cc(F)c(F)cc1C(=O)NCCO)c1ccc(-n2ccnc2)nn1` [Compound 122] the figure was 7.96 µM; with `COC(=O)c1n[nH]cc1NC(=O)c1ccc(-n2ccnc2)nn1` [Compound 123], 2.99 µM; with `N=C(N)NCCC[C@H](NC(=O)c1cc(F)c(F)cc1NC(=O)c1ccc(-n2ccnc2)nn1)C(N)=O` [Compound 124], 8.08 µM.
Consider `Cc1cc(NC(=O)c2ccc(-n3ccnc3)nn2)c(C(N)=O)cc1C` [Compound 125], for which the EC50 amounted to 9.62 µM.
With `O=c1[nH]c(-c2ccc(-n3ccnc3)nn2)nc2cc(F)c(F)cc12` [Compound 126] the figure was 1.12 µM; with `COC(=O)C1=C(NC(=O)c2ccc(-n3ccnc3)nn2)CC(C)(C)CC1` [Compound 127], 7.3 µM.
With `CCOC(=O)C1=C(NC(=O)c2ccc(-n3ccnc3)nn2)CCOC1` [Compound 128] the figure was 4.35 µM; with `CCOC(=O)C1=C(NC(=O)c2ccc(-n3ccnc3)nn2)COCC1` [Compound 129], 10.7 µM; with `O=C(O)C1=C(NC(=O)c2ccc(-n3ccnc3)nn2)CCCC1` [Compound 130], 14.8 µM.
With `CCOC(=O)C1=C(NC(=O)c2ccc(-n3ccnc3)nn2)CCC(F)(F)C1` [Compound 131] the figure was 3.48 µM; with `O=c1oc(-c2ccc(-n3ccnc3)nn2)nc2ccc(F)c(F)c12` [Compound 132], 4.28 µM.
With `Cc1c(F)ccc2nc(-c3ccc(-n4ccnc4)nn3)oc(=O)c12` [Compound 133], the EC50 amounted to 4.17 µM.
The figure for `Cc1cc(C(N)=O)c(NC(=O)c2ccc(-n3ccnc3)nn2)cc1F` [Compound 134] is above 50 µM.
With `CCOC(=O)C1=C(NC(=O)c2ccc(-n3ccnc3)nn2)C[C@@H](C)O[C@H]1C` [Compound 135] the figure was 12.3 µM; with `COC(=O)C1=C(NC(=O)c2ccc(-n3ccnc3)nn2)CC(C)(C)OC1` [Compound 136], 8.84 µM.
Take `Cc1ccc2nc(-c3ccc(-n4ccnc4)nn3)oc(=O)c2n1` [Compound 137]: the EC50 was 9.33 µM.
With `NC(=O)c1cc(Cl)c(Cl)cc1NC(=O)c1ccc(-n2ccnc2)nn1` [Compound 138] the figure was above 50 µM; with `O=c1oc(-c2ccc(-n3ccnc3)nn2)nc2cc3c(cc12)OCCO3` [Compound 139], 2.52 µM; with `O=c1oc(-c2ccc(-n3ccnc3)nn2)nc2ccc(C(F)(F)F)nc12` [Compound 140], around 25.1 µM.
`O=c1oc(-c2ccc(-n3ccnc3)nn2)nc2cc3c(cc12)OC(F)(F)O3` [Compound 141]: the EC50 was above 50 µM.
The figure for `COC(=O)c1cc(O)c(F)cc1NC(=O)c1ccc(-n2ccnc2)nn1` [Compound 142] is above 50 µM; for `CCOC(=O)c1c(F)ccc(F)c1NC(=O)c1ccc(-n2ccnc2)nn1` [Compound 143] it is 9.71 µM; for `Nc1cc(F)c(F)cc1NC(=O)c1ccc(-n2ccnc2)nn1` [Compound 144] it is above 50 µM.
The figure for `COC(=O)c1nc(C2CC2)c(F)cc1NC(=O)c1ccc(-n2ccnc2)nn1` [Compound 145] is 1.58 µM; for `O=C(Nc1cc(F)c(OC(F)(F)F)cc1C(=O)O)c1ccc(-n2ccnc2)nn1` [Compound 146] it is 2.18 µM; for `CN(O)C(=O)c1cc(F)c(F)cc1NC(=O)c1ccc(-n2ccnc2)nn1` [Compound 147] it is 5.25 µM.
As to `CCOC(=O)c1c(F)cc(F)c(F)c1NC(=O)c1ccc(-n2ccnc2)nn1` [Compound 148], the EC50 is 3.68 µM.
With `COC(=O)c1cc(F)c(C)nc1NC(=O)c1ccc(-n2ccnc2)nn1` [Compound 149] the figure was 30.1 µM.
